The subject of data set [1] is apical buds of budded plants. Particulars: normal techniques (comparison; about 10x lower colchicine concentration); cited from earlier work.
Data set [2] concerns apical buds of budded plants. Kind of data set: Ploidy increase in buds treated with colchicine, stomata on leaves counted per unit area and compared to the parent. The data set is classed as in vivo. Particulars: twice daily for five days minimum. The procedure:
Firstly, the plants are budded (on a selected root stock), then they are held in a dormant state and the appropriate chill requirement is given in a cool room (if required). The plants are then removed to a warm environment to prime the bud (which is still dormant). This is continued up to the point at which dormancy is “broken”, cell division is commenced. The bud is then wrapped in absorbent substance, the absorbent material is injected with a 1% aqueous solution of the colchicine drug. Note that this is 10× higher concentration than normal treatments. A plastic surround is used to enclose the bud, to keep it moist but exposed to the drug. This treatment is repeated twice daily for five days minimum.
In a next step, to determine whether a ploidy increase has resulted, the stomata on leaves are counted per unit area and compared to the parent. Unexpectedly, it is observed that between 10-20% of the apical buds have their ploidy level increased as a result of this process (compared with only approx 1% in normal techniques). Thus, for example, in citrus, plant leaves become shorter, thicker, wider and oil glands become more prominent.

Here are results for one compound from patent publication US20070277254A1, “Method for Increasing Ploidy in a Plant” (priority 2003, published 2007).

Read-outs that look alike come from different tables or passages of the source.

On to `COc1cc2c(c(OC)c1OC)-c1ccc(OC)c(=O)cc1[C@@H](NC(C)=O)CC2` [colchicine], for which the “apical buds having their ploidy level increased” value in data set [1] was “approx 1%”; in data set [2] (1% aqueous solution of colchicine injected into absorbent wrap around bud at break of dormancy), 10-20%. Besides, in data set [2] (1% aqueous solution of colchicine), the “effect on original growing point (main bud)” value is listed as “generally killed”.
